Like-named read-outs stand apart in the source and are kept apart here. Marks after values point to notes of the source that are not given here. Where only a bound is given, the exact number is not on record here.

A word on the IC50: it is the point on the concentration scale where inhibition reaches its midpoint.

Data set [1] is described as follows: PTX silicate hydrolysis rates by 1H NMR. Format: physicochemical. The conditions noted are these: for krel at C2′ (hydrolysis rate relative to the slowest, 1d) / krel at C7 (hydrolysis rate relative to the slowest, 1d): d6-acetone:D2O:TFA 90:9:1, room temperature; for krel at C2′ (hydrolysis rate relative to the slowest, 1d): 1d = 1.0, ± SD of three trials; for krel at C7 (hydrolysis rate relative to the slowest, 1d): for 2a/2b rate of in situ generated 3a/3b to PTX. The procedure:
A known quantity of a PTX prodrug was dissolved in 900 μL of d6-acetone. To this homogenous solution, 100 μL of a 9:1 solution of D2O: trifluoroacetic acid (TFA) was added, and the solution was vigorously mixed. The ^1H NMR spectra was taken (16 transients) on a 500 MHz Varian instrument at multiple time points over the course of more than three half-lives. The study was conducted at room temperature (rt=22.5° C.±1.0° C.) Upon completion of the study, the 2′ and/or 7 methine resonances were integrated in a baseline-adjusted NMR spectrum using MestRec software. The relative integrations were used to determine the extent of hydrolysis. The data from three replications was plotted on a semi-log scale to determine the kobs of the prodrug that were then converted to the krel data as presented, defining the rate of the most slowly hydrolyzed prodrug (1d) as krel=1.0. Errors are defined as the standard deviation of the three trials.
^1H NMR spectroscopy was used to establish relative hydrolysis rates of compounds 1-3. The compounds were dissolved in a solution of d6-acetone, D2O, and trifluoroacetic acid (TFA) in a 90:9:1 ratio (v/v/v). Resonances of, e.g., H2′ in the reactant silicate vs. product carbinol were monitored.

The test system of a further data set is MDA-MB-231 cells. The data set can be described thus: MTT cytotoxicity of PTX silicate prodrugs. The data set is classed as cell-based, human. The procedure: MDA-MB-231 and MDA-MB-231 Luciferase positive cells were maintained independently in MEM supplemented with 1% pen/strep and 10% FBS at 37° C. in a humidified incubator. MDA-MB-231 cells were obtained from the American Type Culture Collection. MDA-MB-231 Luc+ cells were obtained from CaliperLS (Hopkinton, Mass., USA). For MTT cytotoxicity studies, MDA-MB-231 cells were seeded at 8,000 cells/well in a 96 well plate in 100 μL MEM with 5% FBS. Paclitaxel, and paclitaxel silicate prodrug stock solutions of 10 mM were prepared in DMSO. Stock solutions were diluted to 2× concentration in MEM with 5% FBS, 100 μL volume, and pipetted into the 96 well plate. Concentration ranges were from 1-10,000 nM. After 48 hours, 30 μL of MTT working reagent was added to cells. Absorbance at 490 nm was monitored on a 96 well plate UV vis detector at 60 minutes. IC50 values were determined by nonlinear regression analysis of log concentration v. response data obtained from the MTT assay. The IC50 was interpolated from the resulting curves using Graphpad Prism v5.1 (Graphpad Software Inc. La Jolla Calif., USA).
Cytotoxicity of the PTX silicate prodrugs 1-3 was examined in the MDA-MB-231 human breast cancer cell line (Table 2).

Data set [2] concerns Tumor cells (4T1, PANC-1 or MDA-MB-231). Nature of the data set: Cytotoxicity against tumor cells in vitro (MTS assay). The data set is classed as cell-based. The note with it: 72 hours, FIG. 2. The procedure:
Tumor cells (4T1, PANC-1 or MDA-MB-231) were seeded in 96-well plates and allowed to attach. Cells were then treated with paclitaxel (solubilized in growth medium using ethanol), silicate prodrug (2a, solubilized in growth medium using ethanol), silicate prodrug nanoparticles (a 58:42 wt % mixture of the bis-triethyl silicate paclitaxel prodrug 2a and a 5K-10K PEG-PLGA BCP dispersed in growth medium) or copolymer-only (blank, no drug) nanoparticles for 72 hours. Cell viability was then measured using a standard MTS assay kit (Promega).

The next data set has as its system Orthotopic 4T1 tumors. The data set can be described thus: 4T1 tumor growth in mice. Format: in vivo, BALB/c mice. The procedure:
Orthotopic 4T1 tumors were grown by injecting ˜1×10^6 tumor cells in the mammary fat pad of BALB/c mice. When the tumors were about 100 mm^3 in volume, the animals were injected with a single dose of paclitaxel dissolved in 1:1 mix of ethanol and cremophor (same formulation as Taxol®), silicate prodrug (2a) dissolved in 1:1 mix of ethanol and cremophor (same formulation as Taxol®), or silicate prodrug nanoparticles dispersed in buffered saline. Untreated animals or those treated with just cremophor/ethanol vehicle were used as controls. […] This study clearly indicates the benefit of formulating paclitaxel in the form of silicate prodrug nanoparticle formulation.

Consider `CCO[Si](OCC)(OCC)O[C@@H](C(=O)O[C@H]1C[C@@]2(O)[C@@H](OC(=O)c3ccccc3)[C@@H]3[C@]4(OC(C)=O)CO[C@@H]4C[C@H](O)[C@@]3(C)C(=O)[C@H](OC(C)=O)C(=C1C)C2(C)C)[C@@H](NC(=O)c1ccccc1)c1ccccc1` [Compound 1a, 2′-O-(triethylorthosilyl)paclitaxel], for which the “difference of krel values between the extremes 1a and 1d” value in data set [1] (1a versus 1d) is recorded as > 2000 ×. Further, the “krel at C2′ (hydrolysis rate relative to the slowest, 1d)” value in data set [1] was 2200 ± 600. For the same compound, the “krel of 1a relative to 1b” value in data set [1] (hydrolysis rates of 1a and 1b called similar) was “ca. 3”. Besides, the IC50 in the data set on MDA-MB-231 cells (Homo sapiens, MDA-MB-231, 48 h) turned out to be 23 nM.

Turning to `CCCCCCCCO[Si](OCCCCCCCC)(OCCCCCCCC)OC(C(=O)OC1CC2(O)C(OC(=O)c3ccccc3)C3C4(OC(C)=O)COC4CC(O)C3(C)C(=O)C(OC(C)=O)C(=C1C)C2(C)C)C(NC(=O)c1ccccc1)c1ccccc1` (centres unmarked) [Compound 1b, 2-O-(tri-n-octylorthosilyl)paclitaxel], the “krel at C2′ (hydrolysis rate relative to the slowest, 1d)” value in data set [1] is reported as 710 ± 30. For the same compound, the IC50 with MDA-MB-231 cells (MDA-MB-231 cells, cell viability measured after 48 h, MTT, read-out: IC50) turned out to be 35.6 nM.

For the compound `CC(=O)O[C@H]1C(=O)[C@@]2(C)[C@H]([C@H](OC(=O)c3ccccc3)[C@]3(O)C[C@H](OC(=O)[C@H](O[Si](OC(C)C)(OC(C)C)OC(C)C)[C@@H](NC(=O)c4ccccc4)c4ccccc4)C(C)=C1C3(C)C)[C@]1(OC(C)=O)CO[C@@H]1C[C@@H]2O` [Compound 1c, 2′-O-(tri-i-propylorthosilyl)paclitaxel], in data set [1], the “krel at C2′ (hydrolysis rate relative to the slowest, 1d)” value was 69 ± 4. The half-inhibitory concentration (IC50) in the data set on MDA-MB-231 cells (Homo sapiens, MDA-MB-231, 48 h) amounted to 24.5 nM.

Regarding `CCO[Si](O[C@@H](C(=O)O[C@H]1C[C@@]2(O)[C@@H](OC(=O)c3ccccc3)[C@@H]3[C@]4(OC(C)=O)CO[C@@H]4C[C@H](O)[C@@]3(C)C(=O)[C@H](OC(C)=O)C(=C1C)C2(C)C)[C@@H](NC(=O)c1ccccc1)c1ccccc1)(OC(C)(C)C)OC(C)(C)C` [Compound 1d, 2′-O-(di-t-butylethylorthosilyl)paclitaxel], the “krel at C2′ (hydrolysis rate relative to the slowest, 1d)” value in data set [1] came out at 1.0 ± 0.1. Also, in the data set with MDA-MB-231 cells (Homo sapiens, MDA-MB-231, 48 h), the 50% inhibitory concentration (IC50) amounted to 8140 nM.

As to `CCO[Si](OCC)(OCC)O[C@H]1C[C@H]2OC[C@@]2(OC(C)=O)[C@H]2[C@H](OC(=O)c3ccccc3)[C@]3(O)C[C@H](OC(=O)[C@H](O[Si](OCC)(OCC)OCC)[C@@H](NC(=O)c4ccccc4)c4ccccc4)C(C)=C([C@@H](OC(C)=O)C(=O)[C@]12C)C3(C)C` [Compound 2a, 2′,7-Di-O-(triethylorthosilyl)paclitaxel], in data set [2], the “anticancer efficacy (cell viability) compared with paclitaxel” value is “anticancer efficacy similar to the parent compound”. Further, in data set [1], the “krel at C2′ (hydrolysis rate relative to the slowest, 1d)” value came out at 1800 ± 100 and the “krel at C7 (hydrolysis rate relative to the slowest, 1d)” value was 250 ± 10^a. Besides, the half-maximal inhibitory concentration (IC50) in the data set on MDA-MB-231 cells (Homo sapiens, MDA-MB-231, 48 h) came out at 74.4 nM.

On to `CCCCCCCCO[Si](OCCCCCCCC)(OCCCCCCCC)OC(C(=O)OC1CC2(O)C(OC(=O)c3ccccc3)C3C4(OC(C)=O)COC4CC(O[Si](OCCCCCCCC)(OCCCCCCCC)OCCCCCCCC)C3(C)C(=O)C(OC(C)=O)C(=C1C)C2(C)C)C(NC(=O)c1ccccc1)c1ccccc1` (centres unmarked) [Compound 2b, 2′,7-Di-O-(tri-n-octylorthosilyl)paclitaxel], for which, in data set [1], the “krel at C2′ (hydrolysis rate relative to the slowest, 1d)” value is reported as 460 ± 10 and the “krel at C7 (hydrolysis rate relative to the slowest, 1d)” value was 41 ± 3^b.

In the case of `CCO[Si](OCC)(OCC)O[C@H]1C[C@H]2OC[C@@]2(OC(C)=O)[C@H]2[C@H](OC(=O)c3ccccc3)[C@]3(O)C[C@H](OC(=O)[C@H](O)[C@@H](NC(=O)c4ccccc4)c4ccccc4)C(C)=C([C@@H](OC(C)=O)C(=O)[C@]12C)C3(C)C` [Compound 3a, 7-O-(triethylorthosilyl)paclitaxel], in data set [1], the “krel at C7 (hydrolysis rate relative to the slowest, 1d)” value is reported as 270 ± 10^. Also, the IC50 in the data set with MDA-MB-231 cells (Homo sapiens, MDA-MB-231, 48 h) is 21.4 nM.

`CCCCCCCCO[Si](OCCCCCCCC)(OCCCCCCCC)O[C@H]1C[C@H]2OC[C@@]2(OC(C)=O)[C@H]2[C@H](OC(=O)c3ccccc3)[C@]3(O)C[C@H](OC(=O)[C@H](O)[C@@H](NC(=O)c4ccccc4)c4ccccc4)C(C)=C([C@@H](OC(C)=O)C(=O)[C@]12C)C3(C)C` [Compound 3b, 7-O-(tri-n-octylorthosilyl)paclitaxel]: the “krel at C7 (hydrolysis rate relative to the slowest, 1d)” value in data set [1] was 55 ± 3^. Further, the IC50 in the data set with MDA-MB-231 cells (Homo sapiens, MDA-MB-231, 48 h) is 540 nM.

`CC(=O)O[C@H]1C(=O)[C@@]2(C)[C@H]([C@H](OC(=O)c3ccccc3)[C@]3(O)C[C@H](OC(=O)[C@H](O)[C@@H](NC(=O)c4ccccc4)c4ccccc4)C(C)=C1C3(C)C)[C@]1(OC(C)=O)CO[C@@H]1C[C@@H]2O` [PTX, paclitaxel] yielded a tumor volume with Orthotopic 4T1 tumors (Day 13, single dose, tumors about 100 mm^3 at injection) of 1450±65 mm^3. Moreover, the “reaction at the site of injection” value in the data set with Orthotopic 4T1 tumors (single injection, BALB/c mice) was “severe tissue irritation and necrosis at the site of injection”. Further, the IC50 in the data set on MDA-MB-231 cells (Homo sapiens, MDA-MB-231 cells, cell viability measured after 48 h, MTT, read-out: IC50) was 23.6 nM.

Source of the values: patent publication US9375484B2, “Taxane silicate prodrugs and nanoparticles” (REGENTS OF THE UNIVERSITY OF MINNESOTA, priority 2011, dated 2016).
